Laboratory results published in publication PMC3797794, “Identification and Characterization of a Novel Trehalose Synthase Gene Derived from Saline-Alkali Soil Metagenomes” (PLoS ONE, 2013).

Tested on: T1, TreS (recombinant trehalose synthase)
T1 construct: pET-22b(+), E. coli BL21(DE3), Ni-NTA; His6 tag kept (C-terminal per Methods, N-terminal with 13 extra residues per Results)
Assay: HPLC-RID of sugars, Lineweaver-Burk
Assay type: biochemical, uncultured bacterium
Conditions: pH 9.0, 45 °C, 30 min, 200 mM sodium phosphate

OC[C@H]1O[C@H](O[C@H]2O[C@H](CO)[C@@H](O)[C@H](O)[C@H]2O)[C@H](O)[C@@H](O)[C@@H]1O [trehalose]
Km: 64 ± 3.5 mM

OC[C@H]1O[C@H](O[C@H]2[C@H](O)[C@@H](O)C(O)O[C@@H]2CO)[C@H](O)[C@@H](O)[C@@H]1O (some centres unmarked) [maltose]
Km: 9 ± 1.2 mM
